Test systems include HCC-2998 colon; HOP-62 NSCLC; MCF7 breast; NCI-H522 lung; OVCAR-5 ovarian; SF-295 CNS; SK-OV-3 ovarian; SN12C renal; SNB-75 CNS; SW-620 colon; UACC-62 melanoma.
Test in all cases: growth of human tumour cells (NCI), 48 h

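Values below derive from 48-hour exposures of cells grown in 96-well plates, with endpoints linearly interpolated between the two concentrations bracketing the appropriate inhibition level. TGI is the concentration that stops growth completely.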

With `COc1ccccc1N1C(=O)CSC1c1cc(OC)c(OC)c(OC)c1` (configuration not stated), the TGI with HCC-2998 colon was more than 100 µM; in the assay on HOP-62 NSCLC, more than 100 µM; with MCF7 breast, more than 100 µM; in the assay on NCI-H522 lung, more than 76.8 µM; with OVCAR-5 ovarian, more than 100 µM; in the assay with SF-295 CNS, more than 100 µM. The TGI in the assay on SK-OV-3 ovarian was more than 100 µM; in the assay on SN12C renal, more than 100 µM; in the assay with SNB-75 CNS, more than 100 µM; with SW-620 colon it was more than 100 µM; in the assay on UACC-62 melanoma, more than 66.1 µM.

Turning to `O=C1Nc2ccccc2/C1=C\c1c(-c2ccccc2)nc2n1CCS2`, the TGI in the assay on HCC-2998 colon was 34.8 µM; in the assay with HOP-62 NSCLC it was more than 100 µM; with MCF7 breast, 39.3 µM; in the assay with NCI-H522 lung it was 51.7 µM; in the assay on OVCAR-5 ovarian, 58.5 µM; in the assay with SF-295 CNS, 48.6 µM. The TGI in the assay on SK-OV-3 ovarian is 67.1 µM; in the assay on SN12C renal, 58.5 µM; in the assay with SNB-75 CNS, 42.8 µM; with SW-620 colon it was more than 100 µM; with UACC-62 melanoma, 27.4 µM.

Take `CC1(C)SCc2nc3ccccc3n21`: the TGI in the assay on HCC-2998 colon, in the assay on HOP-62 NSCLC, with MCF7 breast, in the assay with NCI-H522 lung, in the assay with OVCAR-5 ovarian and with SF-295 CNS was more than 100 µM throughout. Moreover, the TGI was more than 100 µM with SK-OV-3 ovarian; more than 100 µM in the assay on SN12C renal; 3.56 µM in the assay on SNB-75 CNS; more than 100 µM in the assay with SW-620 colon; more than 100 µM in the assay on UACC-62 melanoma.

As for `O=c1nc2c(c(-c3ccc(F)cc3)[nH]1)COC/C2=C\c1ccc(F)cc1`, the TGI with HCC-2998 colon, in the assay with HOP-62 NSCLC, in the assay with MCF7 breast, in the assay with NCI-H522 lung, in the assay with OVCAR-5 ovarian and in the assay with SF-295 CNS was more than 100 µM in each case. Also, the TGI in the assay with SK-OV-3 ovarian, in the assay on SN12C renal, in the assay on SNB-75 CNS, in the assay on SW-620 colon and in the assay with UACC-62 melanoma was more than 100 µM each time.

For `COC(=O)c1ccc(C)cc1C1CN=NC12Cc1cc(C)ccc1C2=O` (configuration not stated), the TGI with HCC-2998 colon is more than 71.4 µM; with HOP-62 NSCLC, more than 100 µM; with MCF7 breast, 24 µM; in the assay with NCI-H522 lung, 26.8 µM; in the assay with OVCAR-5 ovarian, more than 100 µM; with SF-295 CNS, more than 77.2 µM. Moreover, the TGI in the assay with SK-OV-3 ovarian is more than 100 µM; with SN12C renal, more than 87.1 µM; in the assay on SNB-75 CNS, more than 68.1 µM; in the assay on SW-620 colon it was more than 100 µM; in the assay with UACC-62 melanoma, more than 87.3 µM.

Take `COc1cc2c(cc1O)Cc1c-2[n+](C)cc2cc(OC)c(OC)cc12`: the TGI in the assay with HCC-2998 colon, in the assay with HOP-62 NSCLC, in the assay with MCF7 breast, in the assay with NCI-H522 lung, with OVCAR-5 ovarian and in the assay with SF-295 CNS was more than 100 µM throughout. Besides, the TGI in the assay on SK-OV-3 ovarian is more than 100 µM; in the assay on SN12C renal it was more than 100 µM; in the assay with SNB-75 CNS, more than 100 µM; with SW-620 colon, more than 100 µM; in the assay with UACC-62 melanoma it was more than 77.9 µM.

For `COCC12CCC(OC)C34C5CC6(O)C(OC)C=C(C5C6OC(=O)c5ccccc5)C(C(OC)C13)C4N(C)C2` (configuration not stated), the TGI in the assay on HCC-2998 colon, in the assay with HOP-62 NSCLC, with MCF7 breast, with NCI-H522 lung, in the assay with OVCAR-5 ovarian and in the assay on SF-295 CNS was more than 100 µM in each case. In addition, the TGI in the assay on SK-OV-3 ovarian, with SN12C renal, in the assay with SNB-75 CNS, in the assay on SW-620 colon and with UACC-62 melanoma was more than 100 µM throughout.

For the compound `Cn1nc(-c2ccccc2)c2c(-c3ccccc3)c3cc(Cl)ccc3nc21`, the TGI in the assay with HCC-2998 colon, with HOP-62 NSCLC, with MCF7 breast, in the assay with NCI-H522 lung, with OVCAR-5 ovarian and in the assay on SF-295 CNS was more than 100 µM throughout. Further, the TGI with SK-OV-3 ovarian, in the assay on SN12C renal, in the assay with SNB-75 CNS, with SW-620 colon and in the assay with UACC-62 melanoma was more than 100 µM each time.

In the case of `C=C1CC(C)(COc2cc(=O)oc3ccccc23)OC1=O` (configuration not stated), the TGI in the assay on HCC-2998 colon was 42.9 µM; in the assay on HOP-62 NSCLC, 42.1 µM; in the assay on MCF7 breast it was 4.28 µM; with NCI-H522 lung, 5.2 µM; in the assay on OVCAR-5 ovarian, 22.3 µM; in the assay with SF-295 CNS, 30.6 µM. The TGI in the assay on SK-OV-3 ovarian was determined as 22.5 µM; in the assay with SN12C renal, 21.4 µM; in the assay on SNB-75 CNS, 21.3 µM; in the assay on SW-620 colon it was 11.4 µM; with UACC-62 melanoma, 8.65 µM.

Regarding `O=C1CCCCC1C(O)(C(F)(F)F)C(F)(F)Cl` (configuration not stated), the TGI in the assay with HCC-2998 colon, in the assay with HOP-62 NSCLC, in the assay with MCF7 breast, with NCI-H522 lung, in the assay with OVCAR-5 ovarian and with SF-295 CNS was more than 10 µM in each case. Further, the TGI with SK-OV-3 ovarian, in the assay on SN12C renal, in the assay on SNB-75 CNS, in the assay on SW-620 colon and in the assay with UACC-62 melanoma was more than 10 µM throughout.

Regarding `Cc1ccc(SCC(CF)OC(C)n2cnc3c(Cl)nc(N)nc32)cc1` (configuration not stated), the TGI is more than 100 µM in the assay with HCC-2998 colon; more than 100 µM in the assay on HOP-62 NSCLC; more than 100 µM with MCF7 breast; 36.1 µM with NCI-H522 lung; more than 100 µM in the assay on OVCAR-5 ovarian; more than 100 µM in the assay on SF-295 CNS. Besides, the TGI in the assay on SK-OV-3 ovarian, in the assay with SN12C renal, in the assay on SNB-75 CNS, with SW-620 colon and with UACC-62 melanoma was more than 100 µM each time.

Turning to `COc1ccc2c(c1)-c1nc(=O)n(CCCN(C)C)c3ccc([N+](=O)[O-])c(c13)N2`, the TGI came out at 17.7 µM with HCC-2998 colon; 2.39 µM with HOP-62 NSCLC; 18.2 µM in the assay on MCF7 breast; 1.93 µM with NCI-H522 lung; 4.89 µM with OVCAR-5 ovarian; 20.8 µM in the assay with SF-295 CNS. Besides, the TGI with SK-OV-3 ovarian is 17.3 µM; in the assay with SN12C renal, 13.8 µM; with SNB-75 CNS, 8.51 µM; in the assay on SW-620 colon, more than 44.3 µM; with UACC-62 melanoma it was 25.2 µM.
